Assay results: patent publication US10752640B2, “Compounds active towards bromodomains” (NUEVOLUTION A/S, priority 2014, dated 2020)

Target: BRD4 protein (Homo sapiens, UniProt O60885)
Test: FRET assay, half maximal inhibitory concentration (IC50)
Type: binding
Conditions: BRD4 protein 50 nM, Biotin-H4KAc4 peptide 12.5 nM; List of Classification
Summary of the method: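 Acetylated histone H4 peptide binding (biotin-H4KAc4, 12.5 nM final) to BRD4 (50 nM final) detected by TR-FRET between streptavidin cryptate (2.4 nM) and GST-XL665 antibody (10 nM) in KF/BSA. Buffer: HEPES pH 7.5, NaCl, CHAPS. Compound dilutions from 50 μM in 12.5% DMSO were preincubated with protein for 30 min. Variable-slope IC50.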

| Compound | IC50 [nM] |
| --- | --- |
| Cc1cc(O)nc2ccc(NC(=O)c3cccnc3N3CCC(F)C3)cc12 (centres unmarked) [Compound-132, 2-(3-fluoropyrrolidin-1-yl)-N-(2-hydroxy-4-methyl-6-quinolyl)pyridine-3-carboxamide] | < 200 |
| Cc1cc(O)nc2ccc(NC(=O)c3cccnc3N3CCC(F)(F)C3)cc12 [Compound-133, 2-(3,3-difluoropyrrolidin-1-yl)-N-(2-hydroxy-4-methyl-6-quinolyl)pyridine-3-carboxamide] | < 200 |
| Cc1cc(O)nc2ccc(NC(=O)c3ccc(C(F)(F)F)nc3N3CCCC3)cc12 [Compound-134, N-(2-hydroxy-4-methyl-6-quinolyl)-2-pyrrolidin-1-yl-6-(trifluoromethyl)pyridine-3-carboxamide] | < 200 |
| Cc1cc(O)nc2ccc(NC(=O)c3ccc(C(F)(F)F)nc3N3CCOCC3)cc12 [Compound-135, N-(2-hydroxy-4-methyl-6-quinolyl)-2-morpholino-6-(trifluoromethyl)pyridine-3-carboxamide] | 200 to 500 |
| Cc1cc(O)nc2c(C)cc(NC(=O)c3cccnc3N3CCOCC3)cc12 [Compound-136, N-(2-hydroxy-4,8-dimethyl-6-quinolyl)-2-morpholino-pyridine-3-carboxamide] | < 200 |
| Cc1cc2nc(O)cc(C)c2cc1NC(=O)c1c(C)ccnc1N1CCOCC1 [Compound-137, N-(2-hydroxy-4,7-dimethyl-6-quinolyl)-4-methyl-2-morpholino-pyridine-3-carboxamide] | 1000 to 10000 |
| Cc1ccnc(N2CCOCC2)c1C(=O)Nc1ccc2nc(O)cc(C)c2c1 [Compound-138, N-(2-hydroxy-4-methyl-6-quinolyl)-4-methyl-2-morpholino-pyridine-3-carboxamide] | 1000 to 10000 |
| Cc1cc(O)nc2ccc(NC(=O)c3cc(C(F)(F)F)cnc3N3CCOCC3)cc12 [Compound-139, N-(2-hydroxy-4-methyl-6-quinolyl)-2-morpholino-5-(trifluoromethyl)pyridine-3-carboxamide] | < 200 |
| Cc1cc(O)nc2ccc(NC(=O)c3cc(Cl)cnc3N3CCOCC3)cc12 [Compound-140, 5-chloro-N-(2-hydroxy-4-methyl-6-quinolyl)-2-morpholino-pyridine-3-carboxamide] | < 200 |
| Cc1cc(O)nc2ccc(NC(=O)c3cccnc3N3CCOC4CNCC43)cc12 (centres unmarked) [Compound-142, 2-(3,4a,5,6,7,7a-hexahydro-2H-pyrrolo[3,4-b][1,4]oxazin-4-yl)-N-(2-hydroxy-4-methyl-6-quinolyl)pyridine-3-carboxamide] | < 200 |
| Cc1cc(O)nc2ccc(NC(=O)c3cccnc3N3CCOC4COCC43)cc12 (centres unmarked) [Compound-143, 2-(2,3,4a,5,7,7a-hexahydrofuro[3,4-b][1,4]oxazin-4-yl)-N-(2-hydroxy-4-methyl-6-quinolyl)pyridine-3-carboxamide] | 500 to 1000 |
| Cc1cc(O)nc2ccc(NC(=O)c3cccnc3N3C4CCC3COC4)cc12 [Compound-144, N-(2-hydroxy-4-methyl-6-quinolyl)-2-(3-oxa-8-azabicyclo[3.2.1]octan-8-yl)pyridine-3-carboxamide] | < 200 |
| Cc1cc(O)nc2ccc(NC(=O)c3cccnc3N3CCOCC3CO)cc12 (centres unmarked) [Compound-145, 2-[3-(hydroxymethyl)morpholin-4-yl]-N-(2-hydroxy-4-methyl-6-quinolyl)pyridine-3-carboxamide] | < 200 |
| Cc1cc(O)nc2ccc(NC(=O)c3cccnc3N3CCC(F)(F)CC3)cc12 [Compound-146, 2-(4,4-difluoro-1-piperidyl)-N-(2-hydroxy-4-methyl-6-quinolyl)pyridine-3-carboxamide] | < 200 |
| Cc1cc(O)nc2ccc(NC(=O)c3cccnc3N3CCn4ccnc4C3)cc12 [Compound-147, 2-(6,8-dihydro-5H-imidazo[1,2-a]pyrazin-7-yl)-N-(2-hydroxy-4-methyl-6-quinolyl)pyridine-3-carboxamide] | 500 to 1000 |
| COc1cc(O)nc2ccc(NC(=O)c3cccnc3N3CCOCC3)cc12 [Compound-149, N-(2-hydroxy-4-methoxy-6-quinolyl)-2-morpholino-pyridine-3-carboxamide] | 500 to 1000 |
| Cc1cc(O)nc2ccc(NC(=O)c3cc(-c4cnoc4)ccc3N3CCOCC3)cc12 [Compound-151, N-(2-hydroxy-4-methyl-6-quinolyl)-5-isoxazol-4-yl-2-morpholino-benzamide] | < 200 |
| Cc1noc(C)c1-c1ccc(N2CCOCC2)c(C(=O)Nc2ccc3nc(O)cc(C)c3c2)c1 [Compound-152, 5-(3,5-dimethylisoxazol-4-yl)-N-(2-hydroxy-4-methyl-6-quinolyl)-2-morpholino-benzamide] | < 200 |
| Cc1cc2nc(O)cc(C)c2cc1NC(=O)c1cc(-c2cnn(C)c2)ccc1N1CCOCC1 [Compound-154, N-(2-hydroxy-4,7-dimethyl-6-quinolyl)-5-(1-methylpyrazol-4-yl)-2-morpholino-benzamide] | < 200 |
| Cc1cc2nc(O)cc(C)c2cc1NC(=O)c1cc(-c2c(C)noc2C)ccc1N1CCOCC1 [Compound-155, 5-(3,5-dimethylisoxazol-4-yl)-N-(2-hydroxy-4,7-dimethyl-6-quinolyl)-2-morpholino-benzamide] | < 200 |
| Cc1cc(O)nc2c(C)cc(NC(=O)c3cc(-c4ccoc4)ccc3N3CCOCC3)cc12 [Compound-157, 5-(3-furyl)-N-(2-hydroxy-4,8-dimethyl-6-quinolyl)-2-morpholino-benzamide] | < 200 |
| COc1cc2nc(O)cc(C)c2cc1NC(=O)c1cc(-c2cnn(C)c2)ccc1N1CCOCC1 [Compound-159, N-(2-hydroxy-7-methoxy-4-methyl-6-quinolyl)-5-(1-methylpyrazol-4-yl)-2-morpholino-benzamide] | < 200 |
| COc1cc2nc(O)cc(C)c2cc1NC(=O)c1cc(-c2ccoc2)ccc1N1CCOCC1 [Compound-160, 5-(3-furyl)-N-(2-hydroxy-7-methoxy-4-methyl-6-quinolyl)-2-morpholino-benzamide] | 500 to 1000 |
| COc1cc2nc(O)cc(C)c2cc1NC(=O)c1cc(-c2c(C)noc2C)ccc1N1CCOCC1 [Compound-161, 5-(3,5-dimethylisoxazol-4-yl)-N-(2-hydroxy-7-methoxy-4-methyl-6-quinolyl)-2-morpholino-benzamide] | < 200 |
| Cc1cc2nc(O)cc(C)c2cc1NC(=O)c1cc(-c2cnoc2)ccc1N1CCOCC1 [Compound-163, N-(2-hydroxy-4,7-dimethyl-6-quinolyl)-5-isoxazol-4-yl-2-morpholino-benzamide] | < 200 |
| Cc1cc2[nH]c(=O)cc(C)c2cc1NC(=O)c1cc(C#N)ncc1N1CCOCC1 [Compound-164, 2-cyano-N-(4,7-dimethyl-2-oxo-1H-quinolin-6-yl)-5-morpholino-pyridine-4-carboxamide] | < 200 |
| CC(C)c1cc(O)nc2ccc(NC(=O)c3cc(S(=O)(=O)N(C)C)ccc3N3CCCC3)cc12 [Compound-165, 5-(dimethylsulfamoyl)-N-(2-hydroxy-4-isopropyl-6-quinolyl)-2-pyrrolidin-1-yl-benzamide] | < 200 |
| Cc1cc(O)nc2ccc(NC(=O)c3cc(-c4cnn(C)c4)ccc3N3CCOCC3)cc12 [Compound-166, N-(2-hydroxy-4-methyl-6-quinolyl)-5-(1-methylpyrazol-4-yl)-2-morpholino-benzamide] | < 200 |
| Cc1cc(O)nc2ccc(NC(=O)c3cc(-c4ccoc4)ccc3N3CCOCC3)cc12 [Compound-167, 5-(3-furyl)-N-(2-hydroxy-4-methyl-6-quinolyl)-2-morpholino-benzamide] | < 200 |
